Experimental data reported in patent US4395416A, “1-Spiro isobenzofuranic and 1-spiro isobenzothiophenic derivatives the process for preparing the same and their use in therapeutics” (Delalande S.A., priority 1981, dated 1983).

Columns and labels:
mice [1] = test: Phenylbenzoquinone test (analgesic activity); assay type: in vivo; conditions: Mus musculus, ip, read-out: Phenylbenzoquinone test - ED 50
Description: The analgesic activity was shown up on mice by interperitoneal injection of the compounds of formula (I) and their salts using the phenylbenzoquinone test according to the method described by E. SIEGMUND in Proced. Soc. Exp. Biol. and Med. 95, 729 (1957).

mice [2] = test: Protection against death induced by intravenous bicuculline (anti-convulsion activity); assay type: in vivo; conditions: Mus musculus, ip, intravenous injection of 0.7 mg/kg of bicuculline, read-out: Efficient doses 50 - ED 50 protecting against death induced by Bicuculline
[3] = Acute toxicity (mice - LD 50); conditions: mouse, in vivo, ip; for mortality: at 400 mg/kg, read-out: Acute toxicity, % at 400 (mg/kg/i.p.), printed in the LD 50 column

| Structure (SMILES) | ED50 (mice [1]) [mg/kg] | ED50 (mice [2]) [mg/kg] | LD50 [3] [mg/kg] | mortality [3] [%] |
| --- | --- | --- | --- | --- |
| CN1CCCC12SC(=O)c1ccccc12 (stereo not shown) [Code number 1] | 30 | 7 | 400 | – |
| CCCN1CCCC12SC(=O)c1ccccc12 (stereo not shown) [Code number 4] | 35 | 47 | > 400 | – |
| CN1CCCCC12SC(=O)c1ccccc12 (stereo not shown) [compound 2] | 50 | 100 | > 400 | – |
| CCN1CCCC12SC(=O)c1ccccc12 (stereo not shown) [compound 3] | – | 26 | > 400 | – |
| CN1CCCC12SC(=O)c1ccc(Cl)cc12 (stereo not shown) [compound 5] | – | 80 | > 400 | – |
| CN1CCCC12SC(=O)c1cc(Cl)ccc12 (stereo not shown) [compound 6] | – | 8 | > 400 | – |
| CCN1CCCC12SC(=O)c1cc(Cl)ccc12 (stereo not shown) [compound 7] | – | 10 | > 400 | – |
| COc1ccc2c(c1)C1(CCCN1C)SC2=O (stereo not shown) [compound 8] | – | 100 | > 400 | – |
| COc1ccc2c(c1)C(=O)SC21CCCN1C (stereo not shown) [compound 9] | – | 40 | > 400 | – |
| COc1cc2c(cc1OC)C1(CCCN1C)SC2=O (stereo not shown) [compound 10] | – | 30 | > 400 | – |
| CN1CCCC12SC(=O)c1cc(F)ccc12 (stereo not shown) [compound 16] | – | 25 | > 400 | – |
| CN1CCCC12OCc1ccccc12 (stereo not shown) [compound 21] | 100 | 15 | 275 | – |
| CN1CCCC12SCc1ccccc12 (stereo not shown) [compound 22] | – | 34 | 290 | – |
| O=C1OC2(CCCC2)c2ccccc21 [compound 23] | – | 76 | > 400 | – |
| S=C1OC2(CCCC2)c2ccccc21 [compound 24] | 46 | 63 | > 400 | – |
| CCCN1CCCC12SC(=O)c1cc(Cl)ccc12 (stereo not shown) [compound 34] | – | 11 | – | 40 |
| CCCCN1CCCC12SC(=O)c1cc(Cl)ccc12 (stereo not shown) [compound 35] | – | 26 | – | 60 |
| CC(C)CN1CCCC12SC(=O)c1cc(Cl)ccc12 (stereo not shown) [compound 36] | – | 30 | > 400 | – |
| O=C1SC2(CCCN2c2ccccc2)c2ccccc21 (stereo not shown) [compound 37] | – | 100 | > 400 | – |
| O=C1SC2(CCCN2c2ccccc2)c2ccc(Cl)cc21 (stereo not shown) [compound 38] | – | 56 | > 400 | – |
| O=C1SC2(CCCN2c2ccc(Cl)cc2)c2ccccc21 (stereo not shown) [compound 39] | – | 62 | > 400 | – |
| O=C1SC2(CCCN2c2ccc(Cl)cc2)c2ccc(Cl)cc21 (stereo not shown) [compound 40] | – | 100 | > 400 | – |
| CN1CCCC12SC(=O)c1cc(Br)ccc12 (stereo not shown) [compound 41] | – | 29.5 | > 400 | – |
| CN1CCCC12SC(=O)c1cc3ccccc3cc12 (stereo not shown) [compound 42] | – | 34 | > 400 | – |
| CN1CCCC12OCc1cc(Cl)ccc12 (stereo not shown) [compound 43] | 30 | 27.5 | > 400 | – |
| CN1CCCC12OC(c1ccccc1)c1ccccc12 (stereo not shown) [compound 44] | 64 | 45 | > 400 | – |
| CN1CCCC12SCc1cc(Cl)ccc12 (stereo not shown) [compound 45] | – | 15 | > 400 | – |
